The test system of test [1] is ovarian cancer cells SK-OV-3. In words: High-throughput screening (HTS) cytotoxicity, ATPlite assay. Type of test: cell-based. On the set-up: AUC (area under the curve): unit not given beside the values. As to conditions: for pIC50: Homo sapiens. Here is the method: (§1) The present inventors used an HTS system capable of screening various drugs or substances at once to further screen cytotoxicity of DS-26 (Example 1) and DS-28 (Comparative Example 1). Gastric cancer cells NCI-N87 and ovarian cancer cells SK-OV-3 were separately seeded in a 384-well and treated with drugs at various concentrations and cultured for 72 hours. Then, the degree of cell growth was measured by ATPlite assay. The measured data were converted into IC50 using GraphPad Prism 5.0 software, and area under the curve (AUC) was converted to analyze the titer of each drug.
(§2) Also, DS-26 has stable solubility and stability in terms of chemical structure and thus considered worthy to be developed into drugs.
(In ATP-based viability assays light output follows the ATP content of the culture.)

Test [2] relates to Gastric cancer cells NCI-N87. The test is described as above. Type of test: cell-based. On the set-up: AUC (area under the curve): unit not given beside the values. As to conditions: NCI-N87 (HER+), 384-well, 72 hours; for pIC50: Homo sapiens. Here is the method: as §1, §2
[3] abbreviates: SK-OV-3 (HER+), 384-well, 72 hours, ATPlite, read-out: IC50.
The mark [4] stands for this setting: SK-OV-3 (HER+), 384-well, 72 hours, ATPlite.

pIC50: −log10 of the molar value. Where two headings read alike, the source gives them in different places.

The values that follow come from patent US11576896B2, “Benzoselenophene-based compounds, pharmaceutical compositions and antibody-drug conjugates including the same” (AIMED BIO INC., priority 2020, dated 2023).

As for `COc1ccc2c(O)cc3c(c2c1)[C@H](CCl)CN3C(=O)c1cc2cc(NC(=O)CCN(C)C)ccc2[se]1` [DS-26, (S)—N-(2-(1-(chloromethyl)-5-hydroxy-8-methoxy-2,3-dihydro-1H-benzo[e]indole-3-carbonyl)benzo[b]selenophen-5-yl)-3-(dimethylamino)propanamide], the negative-log IC50 (pIC50) (in general, −log10 of the IC50, conventionally taken in molar units) in test [1] (setting [3]) is 10.38; in test [1] (text summary of Table 1 and FIGS. 2A-3B, cell line not specified (NCI-N87 and SK-OV-3 tested), read-out: IC50 (text summary of HTS result)), 10.30 to 10.40; in test [2], 11.26. Also, the “AUC (area under the curve)” value in test [1] (setting [4]) worked out at 481; in test [2], 477.
`COCCOCCOCCOCCOc1cc2[se]c(C(=O)N3C[C@@H](CCl)c4c3cc(O)c3ccc(OC)cc43)cc2cc1NC(C)=O` [DS-28, reference compound]: the negative-log IC50 (pIC50) in test [1] (setting [3]) is 8.78; in test [2], 8.23. For the same compound, the “AUC (area under the curve)” value is listed as 613 in test [1] (setting [4]) and 689 in test [2].
